Reference: paper PMC13327620, “A Deep‐Red‐Absorbing Osmium(II) Complex as a Photosensitizer for Photodynamic Therapy Inducing Immunogenic Cell Death” (Angewandte Chemie (International Ed. in English), 2026)
Like-named read-outs stand apart in the source and are kept apart here.

Assays:
MCA205 cells = assay: In vivo vaccination and rechallenge, MCA205 model; design: species or system C57BL/6 mice; conditions: vaccination with MCA205 cells pre-treated with 500 µM Cisplatin or 1400 µM Oxaliplatin (dark), 5.5 µM Ce6 or 3 µM Os2 (740 nm)
Text: Next, we used these concentrations in the MCA205 vaccination and rechallenge model on C57BL/6 mice to test the in vivo ICD effect of Os2, following the same experimental procedure as that used for CT26‐luc cells in Figure 5A. […] Body weights remained stable across all groups throughout the study, further supporting the good in vivo biosafety of Os2.
The BALB/c female mice were randomly divided into 4 groups with each group containing 5 mice, which were named as Control group, Cisplatin group, Ce6 group and Os2 group. CT26-luc cells wer e treat ed in vitro with 600 µM Cisplatin in the dark, 6.5 µM Ce6 or 1.8 µM Os2 upon 740 nm LED light irradiation (60 min, 12.6 J cm-2) following the methods described above. Subsequently, treated CT26-luc cells (3×10^5 cells in 100 µ L sterile PBS) or 100 µ L sterile PB S were injected subcutaneously into the left flank of each mouse. One week later, mice were r echalleng ed by injection with untreated CT26- luc cells (1×10^6 cells in 100 µL sterile PBS). The mice were monitored by an in vivo imaging system (Biospace Lab, Photon Imager Optima) and the tumor volume was calculated with the following equation: tumor volume = width 2 × length × […]
In vivo vaccination study on MCA205 cells
The C57BL/6 mice were randomly divided into 5 groups with each group containing 10 mice, whi ch w ere nam ed as Control group, Cisplatin group, Oxaliplatin group, Ce6 group and Os2 group. M CA205 cells were treated in vitro with 500 µM Cisplatin o r 1400 µM Oxaliplatin in the dark, 5.5 µM Ce6 or 3 µM Os2 upon 740 nm LED light irradiation (60 min, 12.6 J cm-2) following the methods described above. Subsequently, treated MCA205 cells (3 ×10^5 cells in 100 µ L sterile PBS) or 100 µ L sterile PBS were injected subcutaneously into the left flank of each mouse. One week later, mice were rechallenged by injection with untreated MCA205 cells (1×10^6 cells in 100 µ L sterile PBS). The tumor volume was calculated with the following equation: tumor volume =

[1] = tested on: mouse colon adenocarcinoma (CT-26) cells; assay: Resazurin cell viability assay, (photo)cytotoxicity under hypoxia (1% O2); format: cell-based
Method: (§1) (100 U ml−1), streptomycin (100 U ml−1), and 1% L-glutamine. The murine fibrosarcom a (MCA205) cells were cultured in RPMI 1640 medium with 10% fetal bovine serum (FBS), penicillin (100 U ml−1), streptomycin (100 U ml−1), and 1% L-glutamine. All cells were incubated at 37 °C in a humidified atmosphere with 5 % CO2.
Normoxia. The in vitro viability of cells exposed to the complexes was determined using a resazurin assay. C ells were seeded in 96-well plates at densities of 4,000 cells/well for CT26, MC A205 and U-87 MG cells, and 8,000 cells/well for MRC-5 and NIH/3T3 cells. A fter 24 h of growth at 37 °C wit h 5% CO2, the medium was replaced with fresh medium containing various concentrations of the compounds . […] After a 40- h r ecov ery period, a f reshly pr epar ed resazurin solution (0.2 mg/mL) was added to each well, and the plates were left in the dark for 4 h before analysis on a B i o Te k Cytation 5 Cell Imaging Multimode Reader (Agil ent Technologies). […]
Non-irradiat ed plates were similarly refreshed with medium and k ept in th e d ark fo r the same duration. After a 40 -h recovery period, a f res hly prepar ed resazurin solution (0.2 mg/mL) was added to each well, and the plates were left in the dark for 4 h before analysis on a BioTek Cytation 5 Cell Imaging Multimode Reader (Agilent […]

[2] = tested on: mouse fibrosarcoma (MCA205) cells; assay: Resazurin cell viability assay, phototoxicity; format: cell-based; conditions: MCA-205, light or radiation study, 1 h, MCA205, 740 nm, 60 min, 12.60 J/cm2
Method: as §1
Normoxia. The in vitro viability of cells exposed to the complexes was determined using a resazurin assay. C ells were seeded in 96-well plates at densities of 4,000 cells/well for CT26, MC A205 and U-87 MG cells, and 8,000 cells/well for MRC-5 and NIH/3T3 cells. A fter 24 h of growth at 37 °C wit h 5% CO2, the medium was replaced with fresh medium containing various concentrations of the compounds . Following a 4- h incubation in the dark, the medium was refres hed , and the plates were exposed to irradiation usinga LUM OS -BIO photoreactor (At las Photonics).N on- ir rad iated plates were similarly refr eshed with medium and kept in the dark for the same duration. After a 40- h r ecov ery period, a f reshly pr epar ed resazurin solution (0.2 mg/mL) was added to each well, and the plates were left in the dark for 4 h before analysis on a B i o Te k Cytation 5 Cell Imaging Multimode Reader (Agil ent Technologies). […]

C=Cc1c(C)c2cc3nc(c(CC(=O)O)c4[nH]c(cc5nc(cc1[nH]2)C(C)=C5CC)c(C)c4C(=O)O)[C@@H](CCC(=O)O)[C@@H]3C [Ce6, chlorin e6]
Tumor growth (MCA205 cells): partial suppression
IC50 ([1]; CT26, CT-26, hypoxia (1% O2), dark, read-out: IC50 Dark): > 100 µM
IC50 ([1]; CT26, light or radiation study, 1 h, CT-26, hypoxia (1% O2), 740 nm, 60 min, 12.60 J/cm2, read-out: IC50 740 nm): 5.63 ± 0.41 µM
IC50 [2]: 1770 ± 380 nM
